Where “and” joins values, the source holds several entries; their conditions need not be identical. Equal values may be shown once.
How the values were obtained:
CK2α′ = CK2α′ (Homo sapiens, UniProt P19784); settings: 36 ng recombinant catalytic subunits
PARP = settings: 786-O cells; 2.5-15 μM; 48 h
AKT (S129) = settings: HEK293 cells; 48 h
[1] = tested on: AKT (S129) in 786-O cells
[2] = biological target: ABL1(F317L)-phosphorylated (Homo sapiens, UniProt P00519, F317L); assay: biochemical; settings: read-out: %Ctrl @ 2000nM
[3] = biological target: ABL1(Q252H)-nonphosphorylated (Homo sapiens, UniProt P00519, Q252H); assay: biochemical; settings: read-out: %Ctrl @ 2000nM
ACVR2A = ACVR2A (Homo sapiens, UniProt P27037); assay: biochemical; settings: read-out: %Ctrl @ 2000nM
ACVR2B = ACVR2B (Homo sapiens, UniProt Q13705); assay: biochemical; settings: read-out: %Ctrl @ 2000nM
ACVRL1 = ACVRL1 (Homo sapiens, UniProt P37023); assay: biochemical; settings: read-out: %Ctrl @ 2000nM
BIKE = BIKE (Homo sapiens, UniProt Q9NSY1); assay: biochemical; settings: read-out: %Ctrl @ 2000nM
BMX = BMX (Homo sapiens, UniProt P51813); assay: biochemical; settings: read-out: %Ctrl @ 2000nM
CAMK2G = CAMK2G (Homo sapiens, UniProt Q13555); assay: biochemical; settings: read-out: %Ctrl @ 2000nM
CDK4-cyclinD1 = CDK4-cyclinD1 (Homo sapiens, UniProt P11802); assay: biochemical; settings: read-out: %Ctrl @ 2000nM
CDK5 = CDK5 (Homo sapiens, UniProt Q00535); assay: biochemical; settings: read-out: %Ctrl @ 2000nM
CSNK1E = CSNK1E (Homo sapiens, UniProt P49674); assay: biochemical; settings: read-out: %Ctrl @ 2000nM
EGFR = EGFR (Homo sapiens, UniProt P00533); assay: biochemical; settings: read-out: %Ctrl @ 2000nM
EPHA5 = EPHA5 (Homo sapiens, UniProt P54756); assay: biochemical; settings: read-out: %Ctrl @ 2000nM
EPHB4 = EPHB4 (Homo sapiens, UniProt P54760); assay: biochemical; settings: read-out: %Ctrl @ 2000nM
ERBB3 = ERBB3 (Homo sapiens, UniProt P21860); assay: biochemical; settings: read-out: %Ctrl @ 2000nM
FLT3(D835Y) = FLT3(D835Y) (Homo sapiens, UniProt P36888, D835Y); assay: biochemical; settings: read-out: %Ctrl @ 2000nM
FLT3(R834Q) = FLT3(R834Q) (Homo sapiens, UniProt P36888, R834Q); assay: biochemical; settings: read-out: %Ctrl @ 2000nM
IGF1R = IGF1R (Homo sapiens, UniProt P08069); assay: biochemical; settings: read-out: %Ctrl @ 2000nM
JNK3 = JNK3 (Homo sapiens, UniProt P53779); assay: biochemical; settings: read-out: %Ctrl @ 2000nM
KIT(D816V) = KIT(D816V) (Homo sapiens, UniProt P10721, D816V); assay: biochemical; settings: read-out: %Ctrl @ 2000nM
MEK2 = MEK2 (Homo sapiens, UniProt P36507); assay: biochemical; settings: read-out: %Ctrl @ 2000nM
MEK5 = MEK5 (Homo sapiens, UniProt Q13163); assay: biochemical; settings: read-out: %Ctrl @ 2000nM
MKK7 = MKK7 (Homo sapiens, UniProt O14733); assay: biochemical; settings: read-out: %Ctrl @ 2000nM
MST1 = MST1 (Homo sapiens, UniProt Q13043); assay: biochemical; settings: read-out: %Ctrl @ 2000nM
MST1R = MST1R (Homo sapiens, UniProt Q04912); assay: biochemical; settings: read-out: %Ctrl @ 2000nM
MYO3B = MYO3B (Homo sapiens, UniProt Q8WXR4); assay: biochemical; settings: read-out: %Ctrl @ 2000nM
NLK = NLK (Homo sapiens, UniProt Q9UBE8); assay: biochemical; settings: read-out: %Ctrl @ 2000nM
PAK3 = PAK3 (Homo sapiens, UniProt O75914); assay: biochemical; settings: read-out: %Ctrl @ 2000nM
PCTK3 = PCTK3 (Homo sapiens, UniProt Q07002); assay: biochemical; settings: read-out: %Ctrl @ 2000nM
PHKG2 = PHKG2 (Homo sapiens, UniProt P15735); assay: biochemical; settings: read-out: %Ctrl @ 2000nM
PIK3CA(H1047Y) = PIK3CA(H1047Y) (Homo sapiens, UniProt P42336, H1047Y); assay: biochemical; settings: read-out: %Ctrl @ 2000nM
PRKCI = PRKCI (Homo sapiens, UniProt P41743); assay: biochemical; settings: read-out: %Ctrl @ 2000nM
RET(M918T) = RET(M918T) (Homo sapiens, UniProt P07949, M918T); assay: biochemical; settings: read-out: %Ctrl @ 2000nM
SGK3 = SGK3 (Homo sapiens, UniProt Q96BR1); assay: biochemical; settings: read-out: %Ctrl @ 2000nM
TAOK1 = TAOK1 (Homo sapiens, UniProt Q7L7X3); assay: biochemical; settings: read-out: %Ctrl @ 2000nM
TSSK3 = TSSK3 (Homo sapiens, UniProt Q96PN8); assay: biochemical; settings: read-out: %Ctrl @ 2000nM
TXK = TXK (Homo sapiens, UniProt P42681); assay: biochemical; settings: read-out: %Ctrl @ 2000nM
VPS34 = VPS34 (Homo sapiens, UniProt Q8NEB9); assay: biochemical; settings: read-out: %Ctrl @ 2000nM
WEE2 = WEE2 (Homo sapiens, UniProt P0C1S8); assay: biochemical; settings: read-out: %Ctrl @ 2000nM

Sequence of JNK3 (P53779 whole entry): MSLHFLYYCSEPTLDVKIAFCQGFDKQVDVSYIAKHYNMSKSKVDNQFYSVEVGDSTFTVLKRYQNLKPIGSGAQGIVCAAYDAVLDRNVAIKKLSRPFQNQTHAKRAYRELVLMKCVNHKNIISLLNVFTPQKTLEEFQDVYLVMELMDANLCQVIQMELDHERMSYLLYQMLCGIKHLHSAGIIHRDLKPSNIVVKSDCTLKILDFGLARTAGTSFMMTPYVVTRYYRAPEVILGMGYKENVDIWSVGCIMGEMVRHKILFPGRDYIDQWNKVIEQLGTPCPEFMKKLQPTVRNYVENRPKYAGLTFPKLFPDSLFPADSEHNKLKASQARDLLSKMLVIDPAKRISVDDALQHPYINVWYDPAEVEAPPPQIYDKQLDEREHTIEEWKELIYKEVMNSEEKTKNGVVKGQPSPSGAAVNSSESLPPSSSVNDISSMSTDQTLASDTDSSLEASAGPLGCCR
Sequence of ERBB3 (P21860 20-1342): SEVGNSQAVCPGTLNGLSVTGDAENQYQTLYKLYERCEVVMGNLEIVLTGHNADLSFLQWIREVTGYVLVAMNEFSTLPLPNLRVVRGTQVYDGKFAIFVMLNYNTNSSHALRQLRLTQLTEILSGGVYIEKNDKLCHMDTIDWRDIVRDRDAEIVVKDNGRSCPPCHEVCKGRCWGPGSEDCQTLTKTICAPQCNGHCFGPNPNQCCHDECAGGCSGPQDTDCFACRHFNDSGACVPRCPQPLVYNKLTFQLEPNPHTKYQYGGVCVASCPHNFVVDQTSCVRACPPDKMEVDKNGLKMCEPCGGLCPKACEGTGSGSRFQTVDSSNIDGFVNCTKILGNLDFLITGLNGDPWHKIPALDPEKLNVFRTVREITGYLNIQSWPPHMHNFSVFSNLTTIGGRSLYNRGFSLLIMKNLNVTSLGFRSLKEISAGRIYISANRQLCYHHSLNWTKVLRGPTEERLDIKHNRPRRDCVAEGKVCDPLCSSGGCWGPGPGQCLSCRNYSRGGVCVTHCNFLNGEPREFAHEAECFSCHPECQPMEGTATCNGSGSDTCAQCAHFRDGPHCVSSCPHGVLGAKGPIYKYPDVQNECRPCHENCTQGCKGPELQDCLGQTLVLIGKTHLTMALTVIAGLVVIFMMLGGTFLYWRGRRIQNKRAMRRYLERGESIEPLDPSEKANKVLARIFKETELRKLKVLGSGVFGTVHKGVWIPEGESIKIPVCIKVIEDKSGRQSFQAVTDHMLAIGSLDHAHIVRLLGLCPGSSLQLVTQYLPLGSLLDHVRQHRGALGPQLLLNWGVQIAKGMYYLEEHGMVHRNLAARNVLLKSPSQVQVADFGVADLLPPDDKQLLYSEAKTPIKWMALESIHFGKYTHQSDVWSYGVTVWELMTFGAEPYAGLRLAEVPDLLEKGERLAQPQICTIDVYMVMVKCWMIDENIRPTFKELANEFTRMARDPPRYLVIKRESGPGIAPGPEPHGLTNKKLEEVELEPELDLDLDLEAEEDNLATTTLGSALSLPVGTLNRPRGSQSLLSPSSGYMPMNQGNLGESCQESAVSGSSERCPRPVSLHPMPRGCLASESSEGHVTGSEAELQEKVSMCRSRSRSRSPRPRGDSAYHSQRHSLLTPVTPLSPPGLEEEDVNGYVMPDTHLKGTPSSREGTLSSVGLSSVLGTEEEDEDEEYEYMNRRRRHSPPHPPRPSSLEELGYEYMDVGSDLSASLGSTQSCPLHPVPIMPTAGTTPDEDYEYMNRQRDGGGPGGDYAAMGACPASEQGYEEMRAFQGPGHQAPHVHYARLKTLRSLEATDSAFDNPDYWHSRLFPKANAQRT
Sequence of IGF1R (P08069 31-1367): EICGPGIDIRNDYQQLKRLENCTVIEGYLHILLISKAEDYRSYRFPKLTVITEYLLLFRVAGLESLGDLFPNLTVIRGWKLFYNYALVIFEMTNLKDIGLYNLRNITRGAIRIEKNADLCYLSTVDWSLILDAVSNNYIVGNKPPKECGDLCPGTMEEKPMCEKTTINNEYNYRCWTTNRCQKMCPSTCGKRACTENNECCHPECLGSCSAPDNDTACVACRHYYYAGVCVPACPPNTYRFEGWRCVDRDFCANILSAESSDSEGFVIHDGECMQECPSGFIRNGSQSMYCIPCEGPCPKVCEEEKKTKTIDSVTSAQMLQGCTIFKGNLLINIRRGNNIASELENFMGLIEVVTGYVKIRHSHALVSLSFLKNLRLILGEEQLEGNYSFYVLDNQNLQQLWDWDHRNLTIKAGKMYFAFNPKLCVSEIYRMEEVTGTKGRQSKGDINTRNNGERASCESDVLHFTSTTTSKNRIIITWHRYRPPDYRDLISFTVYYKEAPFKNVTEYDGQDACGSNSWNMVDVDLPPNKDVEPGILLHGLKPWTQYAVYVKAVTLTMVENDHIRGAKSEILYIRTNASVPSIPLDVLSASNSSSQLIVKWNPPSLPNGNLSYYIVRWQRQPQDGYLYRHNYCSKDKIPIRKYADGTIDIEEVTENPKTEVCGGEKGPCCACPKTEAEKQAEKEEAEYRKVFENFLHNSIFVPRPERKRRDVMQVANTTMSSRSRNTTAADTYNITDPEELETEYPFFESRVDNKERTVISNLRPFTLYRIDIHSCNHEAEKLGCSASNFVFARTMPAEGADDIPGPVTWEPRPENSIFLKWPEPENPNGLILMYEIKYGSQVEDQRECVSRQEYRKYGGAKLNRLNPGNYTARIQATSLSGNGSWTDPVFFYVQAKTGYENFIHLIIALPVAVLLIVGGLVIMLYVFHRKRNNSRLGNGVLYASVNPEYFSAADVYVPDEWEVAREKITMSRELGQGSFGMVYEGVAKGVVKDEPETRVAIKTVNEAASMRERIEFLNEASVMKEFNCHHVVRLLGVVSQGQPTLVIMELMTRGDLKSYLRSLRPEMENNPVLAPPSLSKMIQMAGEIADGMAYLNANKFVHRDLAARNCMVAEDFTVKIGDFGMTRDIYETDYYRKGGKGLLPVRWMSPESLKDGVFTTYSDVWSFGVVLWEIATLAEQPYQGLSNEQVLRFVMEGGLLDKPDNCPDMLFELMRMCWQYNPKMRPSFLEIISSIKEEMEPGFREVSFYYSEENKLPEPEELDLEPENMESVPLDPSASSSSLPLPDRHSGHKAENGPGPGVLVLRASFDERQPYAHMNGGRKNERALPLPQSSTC
Sequence of CAMK2G (Q13555 whole entry): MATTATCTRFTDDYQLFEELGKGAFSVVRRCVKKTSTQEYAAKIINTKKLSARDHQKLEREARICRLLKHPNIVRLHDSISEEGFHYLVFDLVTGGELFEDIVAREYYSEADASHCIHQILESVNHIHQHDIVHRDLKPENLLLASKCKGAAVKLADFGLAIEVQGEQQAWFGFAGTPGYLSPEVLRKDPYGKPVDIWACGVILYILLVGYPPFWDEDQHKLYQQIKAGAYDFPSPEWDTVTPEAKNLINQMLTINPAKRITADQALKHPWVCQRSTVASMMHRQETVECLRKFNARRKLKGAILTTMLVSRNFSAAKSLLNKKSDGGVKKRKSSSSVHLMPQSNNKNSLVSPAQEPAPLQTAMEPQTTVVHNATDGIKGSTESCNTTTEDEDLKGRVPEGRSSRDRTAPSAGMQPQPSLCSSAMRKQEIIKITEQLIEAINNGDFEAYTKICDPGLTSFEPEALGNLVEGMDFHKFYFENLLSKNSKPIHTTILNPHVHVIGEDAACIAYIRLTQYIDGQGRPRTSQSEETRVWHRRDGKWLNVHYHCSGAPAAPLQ
Sequence of BMX (P51813 whole entry): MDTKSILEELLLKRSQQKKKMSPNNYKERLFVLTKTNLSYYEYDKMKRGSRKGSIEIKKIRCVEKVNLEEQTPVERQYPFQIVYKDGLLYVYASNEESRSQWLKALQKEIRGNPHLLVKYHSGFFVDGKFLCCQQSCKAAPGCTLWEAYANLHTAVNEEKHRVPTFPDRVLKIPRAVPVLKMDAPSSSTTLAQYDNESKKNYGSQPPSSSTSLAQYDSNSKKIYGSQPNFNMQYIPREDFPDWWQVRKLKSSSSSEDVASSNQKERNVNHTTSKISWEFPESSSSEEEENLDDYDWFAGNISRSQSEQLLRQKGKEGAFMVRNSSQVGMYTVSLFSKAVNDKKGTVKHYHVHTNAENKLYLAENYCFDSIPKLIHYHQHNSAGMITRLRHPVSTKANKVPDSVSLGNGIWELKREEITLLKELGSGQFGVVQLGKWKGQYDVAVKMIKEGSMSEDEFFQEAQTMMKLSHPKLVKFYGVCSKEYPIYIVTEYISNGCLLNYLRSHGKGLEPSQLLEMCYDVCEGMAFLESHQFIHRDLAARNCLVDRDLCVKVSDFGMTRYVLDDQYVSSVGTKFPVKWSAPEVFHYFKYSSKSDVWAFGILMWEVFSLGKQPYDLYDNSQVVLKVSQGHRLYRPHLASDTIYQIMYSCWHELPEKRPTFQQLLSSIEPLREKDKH
Sequence of PRKCI (P41743 whole entry): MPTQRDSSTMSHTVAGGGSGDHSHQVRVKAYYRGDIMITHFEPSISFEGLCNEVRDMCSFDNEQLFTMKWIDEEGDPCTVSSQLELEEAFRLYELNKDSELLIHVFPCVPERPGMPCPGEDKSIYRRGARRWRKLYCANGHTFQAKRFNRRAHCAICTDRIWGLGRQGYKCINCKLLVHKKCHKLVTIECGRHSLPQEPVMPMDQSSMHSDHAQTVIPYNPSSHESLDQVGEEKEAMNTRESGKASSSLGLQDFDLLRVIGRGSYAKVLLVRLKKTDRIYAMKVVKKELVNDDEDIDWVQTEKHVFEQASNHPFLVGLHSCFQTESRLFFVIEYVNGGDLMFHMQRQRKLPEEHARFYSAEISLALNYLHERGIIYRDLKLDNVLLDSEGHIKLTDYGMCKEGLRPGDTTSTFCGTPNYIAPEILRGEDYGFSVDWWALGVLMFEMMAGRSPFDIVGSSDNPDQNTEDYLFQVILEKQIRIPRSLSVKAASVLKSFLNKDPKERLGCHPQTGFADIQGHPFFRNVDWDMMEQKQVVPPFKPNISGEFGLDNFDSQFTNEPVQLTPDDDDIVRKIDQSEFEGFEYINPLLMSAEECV

## CC(C)COC(=O)c1[nH]c2ccc(F)cc2c1-c1cn(CC2CCN(CCNS(=O)(=O)c3ccc(CC(C)C)cc3)CC2)nn1 [AB668, isobutyl 5-fluoro-3-(1-((1-(2-((4-isobutylphenyl)sulfonamido)ethyl)piperidin-4-yl)methyl)-1H-1,2,3-triazol-4-yl)-1H-indole-2-carboxylate]
CK2α′
  efficacy on the catalytic activity of CK2α and CK2α′: very similar efficacy
PARP
  cleavage of PARP: cleavage of PARP
AKT (S129)
  AKT phosphorylation: weakly affected
[1]
  pAKTS129 / AKT band quantification: 0.8 and 0.5
[2]
  remaining activity at 2 µM: 78%
[3]
  remaining activity at 2 µM: 73%
ACVR2A
  remaining activity at 2 µM: 95%
ACVR2B
  remaining activity at 2 µM: 92%
ACVRL1
  remaining activity at 2 µM: 90%
BIKE
  remaining activity at 2 µM: 99%
BMX
  remaining activity at 2 µM: 85%
CAMK2G
  remaining activity at 2 µM: 78%
CDK4-cyclinD1
  remaining activity at 2 µM: 84%
CDK5
  remaining activity at 2 µM: 99%
CSNK1E
  remaining activity at 2 µM: 66%
EGFR
  remaining activity at 2 µM: 92%
EPHA5
  remaining activity at 2 µM: 100%
EPHB4
  remaining activity at 2 µM: 79%
ERBB3
  remaining activity at 2 µM: 94%
FLT3(D835Y)
  remaining activity at 2 µM: 79%
FLT3(R834Q)
  remaining activity at 2 µM: 77%
IGF1R
  remaining activity at 2 µM: 73%
JNK3
  remaining activity at 2 µM: 92%
KIT(D816V)
  remaining activity at 2 µM: 95%
MEK2
  remaining activity at 2 µM: 96%
MEK5
  remaining activity at 2 µM: 100%
MKK7
  remaining activity at 2 µM: 82%
MST1
  remaining activity at 2 µM: 97%
MST1R
  remaining activity at 2 µM: 97%
MYO3B
  remaining activity at 2 µM: 100%
NLK
  remaining activity at 2 µM: 77%
PAK3
  remaining activity at 2 µM: 95%
PCTK3
  remaining activity at 2 µM: 91%
PHKG2
  remaining activity at 2 µM: 88%
PIK3CA(H1047Y)
  remaining activity at 2 µM: 100%
PRKCI
  remaining activity at 2 µM: 85%
RET(M918T)
  remaining activity at 2 µM: 94%
SGK3
  remaining activity at 2 µM: 99%
TAOK1
  remaining activity at 2 µM: 100%
TSSK3
  remaining activity at 2 µM: 98%
TXK
  remaining activity at 2 µM: 92%
VPS34
  remaining activity at 2 µM: 100%
WEE2
  remaining activity at 2 µM: 95%

— publication PMC10838953
